Here are results for 16 compounds from patent US20240150370A1, “BICYCLIC PYRIDINE DERIVATIVE” (Sumitomo Pharma Co., Ltd., priority 0001, published 2024).

The assay deals with human TAAR1 receptor (Homo sapiens (Human), UniProt Q96RJ0). As to the kind of experiment: Evaluation of agonist activity on human TAAR1 receptor (cAMP assay). The class given is cell-based. The conditions noted are these: cAMP in human TAAR1-expressing CHO cells, relative to 100 μM tyramine; for activation at 0.1 µM / activation at 1 µM / activation at 10 µM: CHO, 0.5 h, read-out: TAAR1 agonist activity at each concentration (%). The method, then: TAAR1 is a G protein-coupled receptor that binds to G proteins (Gas), and activation of the TAAR1 receptor by agonists induces an increase in intracellular cAMP levels. Therefore, the agonist activity of the sample on the human TAAR1 receptor was evaluated using the cAMP assay method.
Sequence of human TAAR1 receptor (Q96RJ0 whole entry, the tested form may be a part): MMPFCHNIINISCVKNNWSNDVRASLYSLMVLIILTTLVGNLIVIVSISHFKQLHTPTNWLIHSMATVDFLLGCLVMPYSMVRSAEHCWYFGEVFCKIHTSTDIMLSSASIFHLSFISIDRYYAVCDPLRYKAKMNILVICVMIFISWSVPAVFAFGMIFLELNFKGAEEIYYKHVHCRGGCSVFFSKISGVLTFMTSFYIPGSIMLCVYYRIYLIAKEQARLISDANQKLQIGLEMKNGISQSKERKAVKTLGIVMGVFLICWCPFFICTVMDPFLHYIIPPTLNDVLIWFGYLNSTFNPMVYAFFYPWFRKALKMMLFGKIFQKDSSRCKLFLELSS
cAMP Hunter™ CHO-K1 TAAR1 Gs Cell Line, a cell expressing human TAAR1 receptor, was purchased. Human TAAR1-expressing CHO cells were seeded in a 96-well plate, and after culturing for 24 hours, a sample dissolved in DMSO was added and incubated at 37° C. for 30 minutes. A sample for cAMP measurement was prepared according to the cAMPHiRange kit protocol. The amount of cAMP produced by the sample was measured by time-resolved fluorescence using EnVision (excitation wavelength: 330 nm, fluorescence wavelength […]/665 nm).
Sample %=100×{(Csamp)−(Cblank)}/{(Ctyramine)−(Cblank)} • Csamp: count of sample, Ctyramine: count of 100 μM tyramine, Cblank: count of blank

Molecules are shown by their SMILES. Structures can show the parent of a compound that is named as a salt.

In the case of `C[C@H](N)[C@H]1c2ncccc2O[C@@H]1C` [Example 55], the “TAAR1 agonist activity at each concentration (%)” value (shortened to “TAAR1 agonist activity … (%)”) (100 nM) was found to be 31%, the “TAAR1 agonist activity … (%)” value (1000 nM) was determined as 75% and the “TAAR1 agonist activity … (%)” value (10000 nM) came to 87%.
Consider `[2H]C([2H])([2H])NC[C@H]1c2ncc(F)cc2O[C@@H]1C` [Example 80], for which the activation at 0.1 µM (100 nM) came to 17%. The activation at 1 µM (1000 nM) was 48%. In addition, under “10000 nM”, the activation at 10 µM is 62%.
With `NCC1CSc2cccnc21` (stereo not drawn) [Example 10], the activation at 0.1 µM (100 nM) was determined as 18%. In addition, where the note is “1000 nM”, the activation at 1 µM is 66%. Also, the activation at 10 µM (10000 nM) is 91%.
With `CC[C@@H]1COc2cccnc2[C@@H]1CN` (racemic) [Example 87], for the setting “100 nM”, the activation at 0.1 µM worked out at 4%. The activation at 1 µM (1000 nM) worked out at 25%. The activation at 10 µM (10000 nM) was found to be 63%.
`[2H][C@]1(C)Oc2cccnc2[C@@H]1CN` (stereo in doubt) [Example 57]: the activation at 0.1 µM (100 nM) was determined as 32%. In addition, where the note is “1000 nM”, the activation at 1 µM was 72%. The activation at 10 µM (10000 nM) is 79%.
Consider `C[C@H]1Oc2cc(Cl)cnc2[C@@H]1CN` (racemic) [Example 85], for which the “TAAR1 agonist activity … (%)” value (100 nM) came to 6%, the “TAAR1 agonist activity … (%)” value (1000 nM) was 37% and the “TAAR1 agonist activity … (%)” value (10000 nM) was 70%.
As for `CC[C@@H]1C[C@H](CN)c2ncccc2O1` (racemic) [Example 60], where the note is “100 nM”, the activation at 0.1 µM amounted to 7%. Besides, the activation at 1 µM (1000 nM) worked out at 40%. Moreover, the activation at 10 µM (10000 nM) was 82%.
For `C[C@H]1[C@H](CN)c2ncccc2O[C@@H]1C` (racemic) [Example 63], for the setting “100 nM”, the activation at 0.1 µM was determined as 3%. For the same compound, under “1000 nM”, the activation at 1 µM amounted to 22%. The activation at 10 µM (10000 nM) is 62%.
The like results for `[2H][C@@]1(C)Oc2cccnc2[C@H]1CN` (stereo in doubt) [Example 94, rel-1-[(2S,3R)-2-methyl(2-^2H)-2,3-dihydrofuro[3,2-b]pyridin-3-yl]methanamine dihydrochloride] were, in that order, 1%, 4% and 28%.
On to `CC1(C)Oc2ccc(F)nc2C1CN` (racemic) [Example 106, rac-1-(5-fluoro-2,2-dimethyl-2,3-dihydrofuro[3,2-b]pyridin-3-yl)methanamine dihydrobromide], for which the activation at 0.1 µM (100 nM) was found to be 38%. The activation at 1 µM (1000 nM) was 70%. In addition, the activation at 10 µM (10000 nM) amounted to 78%.
As to `C[C@@H]1[C@H](CN)c2ncccc2O[C@@H]1C` (racemic) [Example 62, rac-1-[(2R,3R,4R)-2,3-dimethyl-3,4-dihydro-2H-pyrano[3,2-b]pyridin-4-yl]methanamine dihydrochloride], the activation at 0.1 µM (100 nM) was 2%. The activation at 1 µM (1000 nM) was determined as 20%. The activation at 10 µM (10000 nM) turned out to be 66%.
Consider `NC[C@@H]1c2nc(F)ccc2OC12CC2` (single isomer, unassigned) [Example 102, rel-1-[(3′R)-5′-fluoro-3′H-spiro[cyclopropane-1,2′-furo[3,2-b]pyridine]-3′-yl]methanamine dihydrobromide], for which the activation at 0.1 µM (100 nM) turned out to be 1%. Further, the activation at 1 µM (1000 nM) worked out at 18%. The activation at 10 µM (10000 nM) amounted to 59%.
Taken in the same sequence, the figures for `CC1CCC(CN)c2ncccc21` (stereo not drawn) [Example 77] were 0%, 11% and 47%.
For the compound `COC[C@H]1Oc2cccnc2[C@@H]1CN` (racemic) [Example 32], where the note is “100 nM”, the activation at 0.1 µM was determined as 1%. Where the note is “1000 nM”, the activation at 1 µM is 4%. The activation at 10 µM (10000 nM) amounted to 22%.
Consider `Cc1cnc2c(c1)O[C@H](C)[C@H]2CN` [Example 28], for which, under “100 nM”, the activation at 0.1 µM is 7%. Also, for the setting “1000 nM”, the activation at 1 µM amounted to 38%. Besides, the activation at 10 µM (10000 nM) came out at 71%.
Taken in the same sequence, the figures for `Cc1ccnc2c1CCCC2CN` (racemic) [Example 92, rac-1-(4-methyl-5,6,7,8-tetrahydroquinolin-8-yl)methanamine] were 0%, 0% and 0%.
